Data on three compounds can be found in patent US9573882B2, “Use of 4-[ethyl(dimethyl)ammonio]butanoate in the treatment of cardiovascular disease” (JSC GRINDEKS, priority 2009, dated 2017).

Molecules are shown by their SMILES. Where only a bound is given, the exact number is not on record here.

Data set [1] relates to isolated rat heart infarction model. The data set is described as follows: Isolated rat heart infarction study after daily p.o. treatment. Format: in vivo, Wistar rats. As to conditions: for Infarct size, % of control: isolated rat heart, 60 min occlusion, 150 min reperfusion, mean ± s.e.m. of 9-10 animals; for decrease of infarct size: versus control. The protocol: Fifty male, 10 weeks old Wistar rats weighing 200-250 g were housed under standard conditions (21-23° C., 12 h light-dark cycle) with unlimited access to food (R3 diet, Lactamin AB, Sweden) and water.
Rats were adapted to local conditions for two weeks before the start of treatment. Meldonium dihydrate at a dose of 5 mg/kg or 100 mg/kg, gamma-butyrobetaine at a dose of 5 mg/kg and EG at doses of 20 mg/kg were administered p.o. daily for 8 weeks. Control rats received water.
Isolated Rat Heart Infarction Study The isolated rat heart experiment was performed essentially as described earlier (Liepinsh et al., J. Cardiovasc. Pharmacol. 2006; 48(6):314-9). Twenty-four hours after the last drug administration hearts were excised and retrogradely perfused via the aorta at a constant pressure with oxygenated Krebs-Henseleit buffer at 37° C. The heart rate, left ventricle end-diastolic pressure and left ventricle developed pressure were continuously recorded. Coronary flow was measured using an ultrasound flow detector (HSE) and the PowerLab 8/30 system from ADInstruments. The hearts were perfused for 20 min to stabilize the hemodynamic functions and then occlusion was performed for 60 min by constricting threads through a plastic tube. Successful occlusion was confirmed by a coronary flow decrease of about 40 percent. Reperfusion was achieved by releasing the threads. At the end of the 150-min reperfusion period, the risk zone was delineated with 0.1% methylene blue. The hearts were then sectioned transversely from the apex to the base in five slices 2 mm in thickness and incubated in 1% triphenyltetrazolium chloride in phosphate buffer (pH 7.4, 37° C.) for 10 min to stain viable tissue red and necrotic tissue white. Computerized planemetric analysis of Sony A900 photographs was performed using Image-Pro Plus 6.3 software to determine the area at risk and area of necrosis expressed as a % of the left ventricle. The obtained values were then used to calculate the infarct size (IS) as a % of risk area according to the formula: Infarct Size=Area of Necrosis/Area at Risk×100%.
The anti-infarction effect of examined substances was investigated in an isolated rat heart infarction model. During occlusion of left coronary artery, the coronary flow in all experimental groups was decreased for 40% (from 11 ml/min 30 to 7 ml/min). Moreover, the drop of developed left ventricular pressure for 50% was observed. […] In reperfusion stage, coronary flow, developed left ventricular pressure, ±dp/dt values were recovered till about 80% of control level. There were no significant differences between control and treatment groups.
Effects of Meldonium dihydrate (5 mg/kg un 100 mg/kg), gamma-butyrobetaine (5 mg/kg) and 4-[ethyl(dimethyl)ammonio]butanoate (EG) (5 mg/kg) after […] of treatment on infarct size in the isolated rat heart infarction experiment are presented in Table 1.

For data set [2] the following is noted: s.c.; cited from earlier work.

As to `CC[N+](C)(C)CCCC(=O)[O-]` [EG, 4-[ethyl(dimethyl)ammonio]butanoate], in data set [1] (5 mg/kg p.o. daily), the “Infarct size, % of control” value was 59 ± 6 % of control. In data set [1] (dose of 5 mg/kg), the “decrease of infarct size” value is on record as 41%.
Regarding `C[N+](C)(C)CCCC(=O)[O-]` [Gamma-butyrobetaine], in data set [1] (5 mg/kg p.o. daily), the “Infarct size, % of control” value is 90 ± 5 % of control. In data set [1] (dose of 5 mg/kg), the “therapeutical effect on infarct size” value is listed as “no therapeutical effect”. In data set [2], the LD50 (usually the dose expected to kill half of the subjects tested) is listed as above 7000 mg/kg.
As to `C[N+](C)(C)NCCC(=O)[O-]` [Meldonium dihydrate, 3-(2,2,2-Trimethylhydrazinium)propionate dihydrate], the “Infarct size, % of control” value in data set [1] (5 mg/kg p.o. daily) is on record as 95 ± 9 % of control; in data set [1] (100 mg/kg p.o. daily) it was 76 ± 10 % of control. In addition, the “decrease of infarct size” value in data set [1] (100 mg/kg) is 24%; in data set [1] (dose of 5 mg/kg) it was 5%.
